The values below come from ChEMBL document CHEMBL5625262, “Discovery and first-time disclosure of CVN766, an exquisitely selective orexin 1 receptor antagonist” (Bioorg Med Chem Lett, 2024).

Series [1] in a line: Metabolic stability in rat liver microsomes assessed as intrinsic clearance. In kind it is ADME, Microsome. Particulars: read-out: CLH. A general note: Microsomes from liver hold many membrane-bound enzymes, among them those of drug oxidation.
In series [2] the target is T1, Orexin receptor type 2 (Homo sapiens) (UniProt O43614).
T1 sequence (whole entry): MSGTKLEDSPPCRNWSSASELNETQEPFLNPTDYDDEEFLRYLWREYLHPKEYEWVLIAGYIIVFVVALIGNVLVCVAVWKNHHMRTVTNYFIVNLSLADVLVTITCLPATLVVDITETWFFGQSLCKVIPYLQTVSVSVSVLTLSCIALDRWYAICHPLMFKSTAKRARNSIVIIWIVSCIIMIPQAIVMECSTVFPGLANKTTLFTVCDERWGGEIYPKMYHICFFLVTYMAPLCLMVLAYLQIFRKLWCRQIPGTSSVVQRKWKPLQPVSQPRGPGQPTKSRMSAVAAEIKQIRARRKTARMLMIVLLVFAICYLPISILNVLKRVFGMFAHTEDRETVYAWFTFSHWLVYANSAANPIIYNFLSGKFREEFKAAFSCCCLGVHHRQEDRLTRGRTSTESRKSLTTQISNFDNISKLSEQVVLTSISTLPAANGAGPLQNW
Kind of series: Antagonist activity at human Ox2R overexpressed in rat Chem-1 cells assessed as inhibition of orexin A induced calcium flux at 10 uM preincubated for 15 mins followed by orexin A addition by FLIPR analysis relative to control. It counts as functional, cell-based.

Series [3] in a line: Metabolic stability in mouse liver microsomes assessed as intrinsic clearance. It counts as ADME, Microsome. As to conditions: read-out: CLH.
Series [4] can be described thus: Metabolic stability in human liver microsomes assessed as intrinsic clearance. As to conditions: read-out: CLH. In kind it is ADME, Microsome.
Series [5] has as its target T2, Orexin/Hypocretin receptor type 1 (Homo sapiens, UniProt O43613).
T2 sequence (O43613 whole entry): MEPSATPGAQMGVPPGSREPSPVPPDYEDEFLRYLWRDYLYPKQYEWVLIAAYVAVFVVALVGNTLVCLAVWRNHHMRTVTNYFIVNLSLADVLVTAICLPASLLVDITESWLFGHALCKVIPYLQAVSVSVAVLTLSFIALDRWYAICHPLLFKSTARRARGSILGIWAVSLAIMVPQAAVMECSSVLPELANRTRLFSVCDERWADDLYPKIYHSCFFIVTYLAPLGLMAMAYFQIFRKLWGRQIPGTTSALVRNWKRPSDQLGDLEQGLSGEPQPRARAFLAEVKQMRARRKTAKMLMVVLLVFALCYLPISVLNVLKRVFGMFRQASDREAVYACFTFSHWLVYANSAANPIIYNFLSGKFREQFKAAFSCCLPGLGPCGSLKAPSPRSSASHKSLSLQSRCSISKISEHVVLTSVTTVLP
Kind of series: Displacement of 3H-SB-674042 from human Ox1R expressed in CHO cell membranes by liquid scintillation counting method. On the set-up: species or system Membrane. A general note: Displacement assays read how much labelled ligand stays bound in the presence of the test substance.

The target in series [6] is T2, Orexin/Hypocretin receptor type 1. Nature of the series: Antagonist activity at human Ox1R overexpressed in rat Chem-1 cells assessed as inhibition of orexin A induced calcium flux preincubated for 15 mins followed by orexin A addition by FLIPR analysis. It counts as functional, cell-based. For orientation: A change in cytosolic calcium serves as a functional read-out for many receptors and channels.

Series [7] can be described thus: Ratio of unbound drug concentration in brain to plasma of po and iv dosed Sprague-Dawley rat. In kind it is ADME, organism-based.
The nature of series [8]: Clearance in dog. It counts as ADME, Canis lupus familiaris. Particulars: in vivo.
Series [9] can be described thus: Tmax in Sprague-Dawley rat at 3 mg/kg, po measured for 8 hrs. In kind it is ADME, organism-based. As to conditions: in vivo.
A short description of series [10]: In vivo receptor occupancy at Ox1R in Sprague-Dawley rat at 3 mg/kg, po in presence of [3H]-SB-674042 measured for 8 hrs. It counts as ADME, organism-based.
Series [11] concerns the target T3, Orexin/Hypocretin receptor type 1 (Homo sapiens) (UniProt O43613).
T3 sequence (whole entry): T2 sequence (O43613 whole entry)
Particulars: CHO, Membrane, filed as antagonist.

A short description of series [12]: Selectivity ratio of pKi for displacement of 3H-SB-674042 from human Ox1R expressed in CHO cell membranes to pKi for Ox2R (unknown origin).
Series [13] in a line: Ratio of drug concentration in brain to plasma of po and iv dosed Sprague-Dawley rat. It counts as ADME, organism-based.
The nature of series [14]: Oral bioavailability in dog. As to conditions: in vivo. In kind it is ADME, organism-based, Canis lupus familiaris.
Series [15] addresses T4, Orexin receptor type 2 (Homo sapiens, UniProt O43614).
T4 sequence (O43614 whole entry): T1 sequence (whole entry)
Kind of series: Binding affinity to Ox2R (unknown origin).

Series [16] is described as follows: Oral bioavailability in Sprague-Dawley rat. It counts as ADME, organism-based. As to conditions: in vivo.
Series [17] is described as follows: Volume of distribution in po or iv dosed Sprague-Dawley rat. It counts as ADME, organism-based. As to conditions: in vivo.
Series [18] deals with T4, Orexin receptor type 2. Nature of the series: Antagonist activity at human Ox2R overexpressed in rat Chem-1 cells assessed as inhibition of orexin A induced calcium flux preincubated for 15 mins followed by orexin A addition by FLIPR analysis. It counts as functional, cell-based.

Turning to `CC(C)c1cnc(N[C@H]2CCC[C@@H]2NC(=O)c2ccccc2-n2nccn2)cn1`, the microsomal CLint in [1] was determined as 119 µL/min/mg; in series [3] it was 403 µL/min/mg; in [4], 23 µL/min/mg. Further, in [2], the inhibition worked out at 12%.
For the molecule `O=C(N[C@H]1CCC[C@@H]1Nc1cnc(C(F)(F)F)cn1)c1ccccc1-n1nccn1`, the inhibition in series [2] amounted to 12%. This molecule also gave a Ki in series [5] of 81.3 nM.
On to `CCc1nc(C(F)(F)F)cnc1N[C@H]1CCC[C@@H]1NC(=O)c1ccccc1-n1nccn1`, for which the inhibition in series [2] is 25.6%.
As for `C[C@]1(Nc2cnc(C(F)(F)F)cn2)CCC[C@@H]1NC(=O)c1ccccc1-n1nccn1`, the inhibition in series [2] came to 25.3%. Also, in [6], the half-maximal inhibitory concentration (IC50) came to 6 nM.
Consider `CCc1nc(C(F)(F)F)cnc1N[C@@H]1CCC[C@H]1NC(=O)c1ncccc1-n1nccn1`, for which, in series [2] (filed as antagonist), the inhibition amounted to 71.4%. Besides, in series [6], the IC50 turned out to be 1230 nM.
With `Cc1nc(C(F)(F)F)cnc1N[C@H]1CCC[C@@H]1NC(=O)c1ccccc1-n1nccn1`, the inhibition in [2] worked out at 22%. For the same molecule, the IC50 in series [6] came out at 21 nM. Moreover, in series [5], the inhibitory constant (Ki) was 20.9 nM.
As for `CCc1nc(C(F)(F)F)cnc1N[C@H]1CCC[C@@H]1NC(=O)c1ncccc1-n1nccn1` [CVN-766], the microsomal CLint in series [1] is 13 µL/min/mg; in series [3], below 3 µL/min/mg; in series [4], below 3 µL/min/mg. The “K(p,uu,brain)” value in [7] was 0.77. This molecule also yielded a clearance in [8] of 2.2 mL/min/kg. Also, the time of peak concentration (Tmax) in series [9] was 1 h. Moreover, the inhibition in series [2] is 37.5%. Further, in [10], the Occ is 79.9%. In series [11], the T1/2 came to 2.2 h. Further, the Ratio pKi in series [12] is above 1000. For the same molecule, the IC50 in [6] was 8 nM. Moreover, the BPR in series [13] was found to be 0.6. Further, the bioavailability in series [14] came to 77%; in series [16], 18%. For the same molecule, the inhibitory constant (Ki) in series [5] was 7.24 nM; on Orexin receptor type 2 [15], 12.9 µM. In series [17], this molecule yielded a Vd of 1.02 L/kg.
In the case of `Cc1nc(C(F)(F)F)cnc1N[C@H]1CCC[C@@H]1NC(=O)c1ncccc1-n1nccn1`, the inhibition in series [2] was found to be 11.4%. Also, the half-inhibitory concentration (IC50) in series [6] turned out to be 32 nM.
As to `Cc1ccc(-n2nccn2)c(C(=O)N[C@H]2CCC[C@@H]2Nc2cnc3ccccc3n2)c1`, the microsomal CLint in [1] was found to be 335 µL/min/mg; in [3], 442 µL/min/mg; in series [4], 24 µL/min/mg. Besides, the inhibition in series [2] (filed as antagonist) was determined as 60%. Also, the IC50 in series [6] came to 16 nM.
`Cc1ccc(-n2nccn2)c(C(=O)N2CCN(c3nc4cc(Cl)ccc4o3)CC[C@H]2C)c1` gave a T1/2 in [11] of 1.25 h.
Regarding `C[C@]1(Nc2cnc(C(F)(F)F)cn2)CCC[C@@H]1NC(=O)c1ncccc1-n1nccn1`, the inhibition in series [2] amounted to 21.1%. In addition, in series [6], the IC50 stood at 16 nM. This molecule had an inhibition constant Ki in series [5] of 18.2 nM. Besides, the negative logarithm of the Ki (pKi) in [5] (cho) stood at 7.74.
Take `Cc1ccc(-n2nccn2)c(C(=O)N[C@H]2CCC[C@@H]2Nc2nc3ccc(F)cc3s2)c1`: the IC50 on Orexin receptor type 2 [18] was determined as 2460 nM; in series [6] it was 17 nM.

By inhibition is commonly meant the drop in the measured response relative to a control, in per cent. By Ki is commonly meant a measure of affinity in units of concentration, obtained from inhibition or displacement. High values mean weaker binding, low ones tighter binding. The term IC50 denotes the concentration needed to halve the response being measured. The term clearance denotes the volume of plasma or blood freed of the substance per unit of time. A low value points to inefficient removal. What is called Tmax is the time from dosing to the highest level. The bioavailability is the share of a dose that reaches the circulation, judged against a reference dose that is usually intravenous. Higher therefore signals much systemic uptake. As usually defined, the pKi is the negative decadic logarithm of the Ki, by convention in mol/L. A high value points to a low Ki.
